“And” between values parts separate entries of the source, which are not always exact repeats. Equal entries are not always repeated. Structures can show the parent of a compound that is named as a salt.
Assays:
[1] = test system: co-cultures of primary cortical neurons and OPCs; test: Axon myelination in co-cultures of primary cortical neurons and OPCs; type: cell-based, mouse; conditions: K102, K110 10 nM; Clemastine, Bazedoxifene 500 nM; 5 days
CYP3A4 = CYP3A4 (Homo sapiens, UniProt P08684); test: in vitro
Chain of CYP3A4 (P08684 whole entry): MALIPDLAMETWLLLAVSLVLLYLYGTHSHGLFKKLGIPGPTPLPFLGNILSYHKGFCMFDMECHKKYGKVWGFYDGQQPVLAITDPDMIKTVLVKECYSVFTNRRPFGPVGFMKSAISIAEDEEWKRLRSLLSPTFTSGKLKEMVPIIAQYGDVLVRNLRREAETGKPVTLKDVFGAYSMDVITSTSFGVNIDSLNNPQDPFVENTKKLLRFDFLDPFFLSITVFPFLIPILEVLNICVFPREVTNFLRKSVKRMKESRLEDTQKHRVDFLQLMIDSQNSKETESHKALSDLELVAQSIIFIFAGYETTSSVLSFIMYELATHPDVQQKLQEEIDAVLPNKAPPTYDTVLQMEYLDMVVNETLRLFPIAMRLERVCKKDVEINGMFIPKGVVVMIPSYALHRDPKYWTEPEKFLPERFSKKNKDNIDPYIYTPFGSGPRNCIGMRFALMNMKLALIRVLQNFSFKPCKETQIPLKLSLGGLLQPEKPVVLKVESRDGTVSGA

ERβ = target: T1, ERβ (Homo sapiens, UniProt Q92731); test: ER reporter gene assay in HEK 293 T cells (ER-luciferase reporter); type: cell-based; conditions: for Reporter gene assay raw data, ERb: ERb data block (head r19), 4 replicate columns; for ERb reporter gene assay raw data (response): four replicate columns per compound
T1 construct: expressed in transfected cells; host or cells: HEK 293 T cells
T1 sequence (Q92731 whole entry, species assumed): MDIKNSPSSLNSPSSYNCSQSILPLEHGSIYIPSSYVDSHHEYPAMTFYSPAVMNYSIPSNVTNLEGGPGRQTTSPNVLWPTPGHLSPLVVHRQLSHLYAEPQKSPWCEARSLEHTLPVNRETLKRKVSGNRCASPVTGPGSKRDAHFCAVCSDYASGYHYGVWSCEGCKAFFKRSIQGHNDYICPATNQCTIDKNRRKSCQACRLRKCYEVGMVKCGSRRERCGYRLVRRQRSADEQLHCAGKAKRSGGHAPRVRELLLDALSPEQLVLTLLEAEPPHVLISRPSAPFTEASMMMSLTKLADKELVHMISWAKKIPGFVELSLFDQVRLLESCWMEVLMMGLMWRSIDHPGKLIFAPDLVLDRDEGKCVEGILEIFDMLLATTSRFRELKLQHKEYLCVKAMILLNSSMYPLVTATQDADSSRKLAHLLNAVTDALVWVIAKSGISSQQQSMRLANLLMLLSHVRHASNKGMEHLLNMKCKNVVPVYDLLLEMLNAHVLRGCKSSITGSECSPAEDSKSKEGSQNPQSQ

ERα = target: T2, ERα (Homo sapiens, UniProt P03372); test: as above; type: cell-based; conditions: for Reporter gene assay raw data, ERa: 4 replicate columns
T2 construct: expressed in transfected cells; host or cells: HEK 293 T cells
T2 sequence (P03372 1-595): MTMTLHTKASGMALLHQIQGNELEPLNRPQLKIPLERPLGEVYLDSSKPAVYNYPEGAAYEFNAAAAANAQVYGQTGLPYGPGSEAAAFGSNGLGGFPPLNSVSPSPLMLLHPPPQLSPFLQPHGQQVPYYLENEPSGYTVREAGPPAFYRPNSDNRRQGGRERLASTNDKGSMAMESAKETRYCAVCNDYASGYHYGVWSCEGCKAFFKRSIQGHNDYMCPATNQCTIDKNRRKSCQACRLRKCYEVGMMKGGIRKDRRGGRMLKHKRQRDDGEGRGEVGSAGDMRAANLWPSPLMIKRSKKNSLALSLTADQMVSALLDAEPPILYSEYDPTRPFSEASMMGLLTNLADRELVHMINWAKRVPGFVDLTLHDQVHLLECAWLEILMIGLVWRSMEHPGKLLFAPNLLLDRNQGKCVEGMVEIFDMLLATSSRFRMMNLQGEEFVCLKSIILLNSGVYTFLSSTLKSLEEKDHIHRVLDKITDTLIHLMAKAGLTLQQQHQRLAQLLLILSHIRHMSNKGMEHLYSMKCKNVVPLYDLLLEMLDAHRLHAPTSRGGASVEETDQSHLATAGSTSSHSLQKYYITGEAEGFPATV

CYP2D6 = CYP2D6 (Homo sapiens, UniProt P10635); test: CYP inhibition; conditions: human, probe Dextromethorphan
Chain of CYP2D6 (P10635 whole entry): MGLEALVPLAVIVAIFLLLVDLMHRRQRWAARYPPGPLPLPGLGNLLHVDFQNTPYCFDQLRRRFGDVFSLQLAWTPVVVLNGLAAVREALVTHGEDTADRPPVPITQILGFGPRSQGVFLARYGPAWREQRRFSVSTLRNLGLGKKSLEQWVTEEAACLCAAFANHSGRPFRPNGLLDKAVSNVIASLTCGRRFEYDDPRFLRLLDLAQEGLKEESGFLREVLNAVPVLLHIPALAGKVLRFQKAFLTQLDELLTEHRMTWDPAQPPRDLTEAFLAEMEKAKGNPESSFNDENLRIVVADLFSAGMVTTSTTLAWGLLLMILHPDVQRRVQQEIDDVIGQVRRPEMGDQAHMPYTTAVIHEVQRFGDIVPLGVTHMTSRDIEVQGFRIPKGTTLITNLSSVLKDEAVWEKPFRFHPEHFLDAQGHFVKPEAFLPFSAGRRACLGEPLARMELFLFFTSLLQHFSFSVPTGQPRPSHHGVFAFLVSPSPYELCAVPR

CYP2C9 = CYP2C9 (Homo sapiens, UniProt P11712); test: CYP inhibition; conditions: human
Chain of CYP2C9 (P11712 whole entry): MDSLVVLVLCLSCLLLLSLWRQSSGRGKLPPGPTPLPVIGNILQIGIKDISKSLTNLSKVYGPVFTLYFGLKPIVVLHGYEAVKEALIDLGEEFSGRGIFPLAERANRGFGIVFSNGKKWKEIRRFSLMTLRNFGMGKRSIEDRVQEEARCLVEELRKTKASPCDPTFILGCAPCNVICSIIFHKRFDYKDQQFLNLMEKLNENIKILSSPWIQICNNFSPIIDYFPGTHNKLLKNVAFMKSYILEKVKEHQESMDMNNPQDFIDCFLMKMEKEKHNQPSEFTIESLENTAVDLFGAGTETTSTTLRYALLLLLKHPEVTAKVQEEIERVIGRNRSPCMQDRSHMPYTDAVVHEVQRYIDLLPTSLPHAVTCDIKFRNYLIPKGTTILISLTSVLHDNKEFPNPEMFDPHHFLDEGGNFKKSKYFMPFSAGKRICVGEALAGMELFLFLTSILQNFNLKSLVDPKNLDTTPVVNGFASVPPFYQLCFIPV

[2] = Stability in human plasma; type: in vitro ADME
[3] = Plasma protein binding (human)
[4] = Plasma protein binding (mouse)

With `CN1CCC[C@@H]1CCO[C@](C)(c1ccccc1)c1ccc(Cl)cc1` [Clemastine, Clemastine fumarate] the “OL processes wrapping axons” value [1] was “significant increase”.

`CC(=O)N1CCN(c2ccc(OCC3COC(Cn4ccnc4)(c4ccc(Cl)cc4Cl)O3)cc2)CC1` (stereo not shown) [Ketoconazole] showed an inhibition at 10 µM (CYP3A4; CYP Inhibition Percentage CYP3A4-M) of 95.5% and an inhibition at 10 µM (CYP3A4; CYP Inhibition Percentage CYP3A4-T) of 92.5%.

With `CCCc1c(-c2ccc(O)cc2)nn(-c2ccc(O)cc2)c1-c1ccc(O)cc1` [PPT, propylpyrazoletriol] the “Reporter gene assay raw data, ERb” value (ERβ; Log M -6) was 19.5014 and 20.0849 and 23.8882 and 22.6897, the “ERb reporter gene assay raw data (response)” value (ERβ; Log M -6) was 21.485 and 20.205 and 17.3019 and 20.855 and the “Reporter gene assay raw data, ERb” value (ERβ; Log M -6.47756) was 16.4485 and 15.2513 and 19.8755 and 17.389. The “ERb reporter gene assay raw data (response)” value (ERβ; Log M -6.47756) was 18.9594 and 20.0074 and 15.2776 and 15.7954, the “Reporter gene assay raw data, ERb” value (ERβ; Log M -6.95468) was 10.4714 and 10.5487 and 14.4972 and 14.256 and the “ERb reporter gene assay raw data (response)” value (ERβ; Log M -6.95468) was 18.4622 and 14.9797 and 13.6041 and 14.8139. For the same compound, the “Reporter gene assay raw data, ERb” value (ERβ; Log M -7.4318) was 5.476 and 4.22 and 5.578 and 6.583, the “ERb reporter gene assay raw data (response)” value (ERβ; Log M -7.4318) was 10.9473 and 9.898 and 9.008 and 8.195 and the “Reporter gene assay raw data, ERb” value (ERβ; Log M -7.91009) was 1.07 and -0.6207 and 3.16 and 0.9592. The “ERb reporter gene assay raw data (response)” value (ERβ; Log M -7.91009) was 6.169 and 4.563 and 6.678 and 4.2739, the “Reporter gene assay raw data, ERb” value (ERβ; Log M -8.3851) was 0.7593 and -1.643 and 0.4997 and -2.03 and the “ERb reporter gene assay raw data (response)” value (ERβ; Log M -8.3851) was 3.945 and 3.96 and 6.88 and 1.445. For the same compound, the “Reporter gene assay raw data, ERb” value (ERβ; Log M -8.86328) was -0.4322 and -1.466 and 2.716 and -1.501, the “ERb reporter gene assay raw data (response)” value (ERβ; Log M -8.86328) was 5.736 and 3.2685 and 3.216 and 2.057 and the “Reporter gene assay raw data, ERb” value (ERβ; Log M -9.34008) was -0.1098 and -1.507 and 1.45 and -0.6901. The “ERb reporter gene assay raw data (response)” value (ERβ; Log M -9.34008) was 3.967 and 2.823 and 2.379 and 1.871, the “Reporter gene assay raw data, ERb” value (ERβ; Log M -9.81816) was -0.5451 and -0.7163 and 0.1509 and -1.511 and the “ERb reporter gene assay raw data (response)” value (ERβ; Log M -9.81816) was 1.577 and 2.9115 and 0.9432 and -0.07211. The “Reporter gene assay raw data, ERb” value (ERβ; Log M -10.2941) was -1.084 and -0.1568 and -0.6795 and -0.3425, the “ERb reporter gene assay raw data (response)” value (ERβ; Log M -10.2941) was 1.736 and 0.3306 and 0.3765 and -0.321 and the “Reporter gene assay raw data, ERb” value (ERβ; Log M -10.7721) was -1.226 and -1.1541 and -1.046 and -1.761. For the same compound, the “ERb reporter gene assay raw data (response)” value (ERβ; Log M -10.7721) was -0.8597 and 0.03179 and -1.5452 and -1.38, the “Reporter gene assay raw data, ERb” value (ERβ; Log M -11.248) was -0.3317 and 0.5222 and -1.104 and -1.502 and the “ERb reporter gene assay raw data (response)” value (ERβ; Log M -11.248) was -0.3358 and 0.6884 and 0.7035 and 0.7906. The “ERb reporter gene assay raw data (response)” value (ERβ; Log M -13) was 0.5566 and -0.5566 and 0.8119 and -0.8119, the “Reporter gene assay raw data, ERa” value (ERα; Log M -6, first ERa data block (head r2)) was 86.0824 and 79.2296 and 78.3082 and 79.1573 and the “Reporter gene assay raw data, ERa” value (ERα; Log M -6, second ERa data block (head r34)) was 87.9608 and 88.617 and 93.8527 and 87.2476. The “Reporter gene assay raw data, ERa” value (ERα; Log M -6.47756, first ERa data block (head r2)) was 90.8624 and 88.5783 and 89.3316 and 78.0129, the “Reporter gene assay raw data, ERa” value (ERα; Log M -6.47756, second ERa data block (head r34)) was 88.252 and 85.7322 and 87.7049 and 87.7177 and the “Reporter gene assay raw data, ERa” value (ERα; Log M -6.95468, first ERa data block (head r2)) was 87.1769 and 84.3715 and 90.3303 and 89.4496. The “Reporter gene assay raw data, ERa” value (ERα; Log M -6.95468, second ERa data block (head r34)) was 95.811 and 91.5253 and 94.4371 and 90.1172, the “Reporter gene assay raw data, ERa” value (ERα; Log M -7.4318, first ERa data block (head r2)) was 90.4114 and 87.987 and 94.8392 and 90.7082 and the “Reporter gene assay raw data, ERa” value (ERα; Log M -7.4318, second ERa data block (head r34)) was 106.107 and 97.2934 and 83.08 and 92.8748. For the same compound, the “Reporter gene assay raw data, ERa” value (ERα; Log M -7.91009, first ERa data block (head r2)) was 85.6554 and 95.12 and 98.5558 and 94.3071, the “Reporter gene assay raw data, ERa” value (ERα; Log M -7.91009, second ERa data block (head r34)) was 95.0594 and 87.5842 and 88.9618 and 84.8971 and the “Reporter gene assay raw data, ERa” value (ERα; Log M -8.3851, first ERa data block (head r2)) was 92.5458 and 88.4315 and 85.0988 and 85.7612. The “Reporter gene assay raw data, ERa” value (ERα; Log M -8.3851, second ERa data block (head r34)) was 94.3547 and 89.3596 and 80.8197 and 80.3933, the “Reporter gene assay raw data, ERa” value (ERα; Log M -8.86328, first ERa data block (head r2)) was 84.8361 and 86.8057 and 82.3746 and 77.2465 and the “Reporter gene assay raw data, ERa” value (ERα; Log M -8.86328, second ERa data block (head r34)) was 85.9296 and 87.1693 and 76.3853 and 76.3319. For the same compound, the “Reporter gene assay raw data, ERa” value (ERα; Log M -9.34008, first ERa data block (head r2)) was 74.7989 and 75.6545 and 77.292 and 82.2909, the “Reporter gene assay raw data, ERa” value (ERα; Log M -9.34008, second ERa data block (head r34)) was 84.5588 and 86.4988 and 76.9768 and 80.3165 and the “Reporter gene assay raw data, ERa” value (ERα; Log M -9.81816, first ERa data block (head r2)) was 61.8395 and 65.1501 and 66.4827 and 65.905. For the same compound, the “Reporter gene assay raw data, ERa” value (ERα; Log M -9.81816, second ERa data block (head r34)) was 75.5533 and 73.0444 and 68.3421 and 69.495, the “Reporter gene assay raw data, ERa” value (ERα; Log M -10.2941, first ERa data block (head r2)) was 40.0072 and 40.9439 and 38.9576 and 38.1761 and the “Reporter gene assay raw data, ERa” value (ERα; Log M -10.2941, second ERa data block (head r34)) was 46.869 and 47.8915 and 37.7547 and 39.1778. For the same compound, the “Reporter gene assay raw data, ERa” value (ERα; Log M -10.7721, first ERa data block (head r2)) was 19.4359 and 14.8698 and 17.3697 and 15.2983, the “Reporter gene assay raw data, ERa” value (ERα; Log M -10.7721, second ERa data block (head r34)) was 13.881 and 18.514 and 18.2618 and 16.0774 and the “Reporter gene assay raw data, ERa” value (ERα; Log M -11.248, first ERa data block (head r2)) was 4.705 and 3.999 and 3.885 and 4.444. For the same compound, the “Reporter gene assay raw data, ERa” value (ERα; Log M -11.248, second ERa data block (head r34)) was 6.356 and 4.574 and 4.487 and 4.951 and the “ERa reporter gene assay raw data (response)” value (ERα; Log M -13, four replicate columns per compound) was 0.8253 and -0.8253 and 1.478 and -1.478.

With `C=C[C@H]1C[N@@]2CC[C@H]1C[C@@H]2[C@@H](O)c1ccnc2ccc(OC)cc12` [Quinidine] the inhibition at 10 µM (CYP2D6) was 92.7%.

`Nc1ccc(S(=O)(=O)Nc2ccnn2-c2ccccc2)cc1` [Sulfaphenazole] gave an inhibition at 10 µM (CYP2C9) of 93.9%.

For `CC(=O)CC(c1ccccc1)c1c(O)c2ccccc2oc1=O` (stereo not shown) [Wafarine], the “% Remaining at 6 hr in Human Plasma” value [2] was 111.24%, the “Protein Binding (% Bound) Human” value [3] was 98.68% and the “Protein Binding (% Bound) Mouse” value [4] was 93.11%.

From publication PMC12508063, “Chloroindazole based estrogen receptor β ligands with favorable pharmacokinetics promote functional remyelination and visual recovery” (Scientific Reports, 2025)
